{"source": "paper PMC6826616", "about": "“Topical 2′-Hydroxyflavanone for Cutaneous Melanoma” (Cancers, 2019)", "assay_type_in_all_cases": "cell-based", "key": {"[1]": {"test_system": "B16-F0 cells", "experiment": "MTT cytotoxicity assay, B16-F0", "settings": "Mus musculus, B16F0; Table 1, agent alone; read-out: IC50", "description": "(§1) We studied the growth-inhibitory effects of 2HF on the B16-F0 and B16-F10 murine melanoma cell lines as well as on the SK-MEL-24 human melanoma cell line. B16-F10 and SK-MEL-24 have been shown in previous studies to be highly resistant to treatment and much more invasive than B16-F0 [32]. […] The absorption value measured upon reduction of the MTT dye by functional mitochondria is an indirect measure of cell number that cannot distinguish inhibited cell proliferation from apoptotic or necrotic cell death. By counting viable (trypan-blue dye-excluding) cells using a hemacytometer, we verified that 2HF did indeed cause cell death.\n(§2) Figure 1 Mouse and human melanoma cell survival following 2′-hydroxyflavanone (2HF) treatment.\n(§3) The IC50 of 2HF on B16-F0, B16-F10, and SK-MEL-24 cells was determined by MTT cytotoxicity assay. Cells were harvested and Trypan Blue dye exclusion test was used to determine the number of viable cells present in a cell suspension using a hemocytometer. The cell suspension was diluted to 5 × 10^4 cells/mL with Dulbecco’s Modified Eagle’s Medium (DMEM) complete medium and 5000 cells/well were plated in 96-well plates. After 24 h incubation at 37 °C, cells were treated with 2HF concentrations ranging from 0–200 µM (8 replicates per plate). After 48 or 72 h incubation, 40 µL of MTT (5 mg/mL) solution was added. After 4 h incubation, the plate was centrifuged at 700× g for 5 min and medium was aspirated completely. Then, 50 µL DMSO was added to each well to dissolve the purple precipitate on the rocking platform for about 15 min. The absorbance was then measured at 490 nm using a 96-well microplate reader (Spectramax Plus, Molecular Devices, Inc, San Jose, CA, USA)."}, "[2]": {"test_system": "SK-MEL-24 cells", "experiment": "MTT cytotoxicity assay, SK-MEL-24", "settings": "Homo sapiens, Table 1, agent alone, read-out: IC50", "description": "as §1, §2, §3"}, "[3]": {"test_system": "B16-F10 cells", "experiment": "MTT cytotoxicity assay, B16-F10", "settings": "Mus musculus, Table 1, agent alone, read-out: IC50", "description": "as §1, §2, §3"}}, "data": [{"smiles": "COC1CCN(C(=O)c2cc(Cc3n[nH]c(=O)c4ccccc34)ccc2F)CC1", "note": "[PARP1i, AZD 2461, reference compound]", "values": [{"measurement": "IC50", "setting": "[1]", "result": "16.5 ± 4.86", "unit": "µM"}, {"measurement": "IC50", "setting": "[2]", "result": "55 ± 23.9", "unit": "µM"}, {"measurement": "IC50", "setting": "[3]", "result": "29.9 ± 28.5", "unit": "µM"}]}]}
